For assay [1], the target named is Motilin receptor (Homo sapiens, UniProt O43193).
Assay [2] deals with Cannabinoid receptor 1 (Homo sapiens, UniProt P21554). The class given is functional, cell-based.
The target in assay [3] is T1, 5-hydroxytryptamine receptor 1A (Homo sapiens, UniProt P08908).
T1 sequence (P08908 whole entry): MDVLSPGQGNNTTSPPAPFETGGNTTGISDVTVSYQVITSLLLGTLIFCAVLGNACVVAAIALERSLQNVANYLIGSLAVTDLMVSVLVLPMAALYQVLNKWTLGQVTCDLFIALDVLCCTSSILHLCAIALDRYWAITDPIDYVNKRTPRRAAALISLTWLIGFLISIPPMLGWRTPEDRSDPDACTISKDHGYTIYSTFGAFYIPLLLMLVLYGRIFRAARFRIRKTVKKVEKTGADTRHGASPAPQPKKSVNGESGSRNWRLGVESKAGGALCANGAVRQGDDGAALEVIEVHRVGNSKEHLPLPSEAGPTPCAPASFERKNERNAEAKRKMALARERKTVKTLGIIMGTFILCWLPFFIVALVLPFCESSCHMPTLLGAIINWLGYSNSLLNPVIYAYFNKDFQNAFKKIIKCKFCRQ
The class given is functional, cell-based.

For assay [4], the target named is cGMP-inhibited 3',5'-cyclic phosphodiesterase 3A (Homo sapiens, UniProt Q14432). The assay is classed as functional.
Sequence of cGMP-inhibited 3',5'-cyclic phosphodiesterase 3A (Q14432 whole entry): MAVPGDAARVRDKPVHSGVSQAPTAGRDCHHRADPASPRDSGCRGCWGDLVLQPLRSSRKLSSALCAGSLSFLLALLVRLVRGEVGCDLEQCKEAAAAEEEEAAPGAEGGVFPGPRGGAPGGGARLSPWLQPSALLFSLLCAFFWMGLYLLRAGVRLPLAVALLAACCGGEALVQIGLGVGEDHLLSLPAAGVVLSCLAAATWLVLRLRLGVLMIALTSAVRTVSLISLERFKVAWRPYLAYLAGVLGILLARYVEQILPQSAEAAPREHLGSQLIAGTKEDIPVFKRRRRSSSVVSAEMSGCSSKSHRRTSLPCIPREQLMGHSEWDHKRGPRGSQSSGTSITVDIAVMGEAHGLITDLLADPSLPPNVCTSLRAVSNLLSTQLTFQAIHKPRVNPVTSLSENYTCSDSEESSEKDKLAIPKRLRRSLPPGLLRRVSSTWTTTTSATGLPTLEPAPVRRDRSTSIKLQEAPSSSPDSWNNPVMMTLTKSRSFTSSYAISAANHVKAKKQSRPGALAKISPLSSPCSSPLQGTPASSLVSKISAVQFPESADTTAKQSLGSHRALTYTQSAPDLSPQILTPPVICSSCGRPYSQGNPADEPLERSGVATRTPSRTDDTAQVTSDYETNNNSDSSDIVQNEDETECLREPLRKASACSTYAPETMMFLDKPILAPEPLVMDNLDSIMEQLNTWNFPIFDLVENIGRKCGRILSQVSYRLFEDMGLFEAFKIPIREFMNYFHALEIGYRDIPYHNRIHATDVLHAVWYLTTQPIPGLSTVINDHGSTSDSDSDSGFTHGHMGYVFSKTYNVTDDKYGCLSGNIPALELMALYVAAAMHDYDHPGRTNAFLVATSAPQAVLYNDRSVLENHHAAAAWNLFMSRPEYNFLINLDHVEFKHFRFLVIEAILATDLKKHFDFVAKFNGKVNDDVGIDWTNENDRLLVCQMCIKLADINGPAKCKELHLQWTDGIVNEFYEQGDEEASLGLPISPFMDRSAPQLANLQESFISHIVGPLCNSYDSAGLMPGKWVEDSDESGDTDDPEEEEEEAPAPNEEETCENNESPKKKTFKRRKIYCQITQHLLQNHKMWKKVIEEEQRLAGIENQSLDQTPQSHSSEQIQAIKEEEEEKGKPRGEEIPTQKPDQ
The target in assay [5] is Delta-type opioid receptor (Homo sapiens, UniProt P41143).
Sequence of Delta-type opioid receptor (P41143 whole entry): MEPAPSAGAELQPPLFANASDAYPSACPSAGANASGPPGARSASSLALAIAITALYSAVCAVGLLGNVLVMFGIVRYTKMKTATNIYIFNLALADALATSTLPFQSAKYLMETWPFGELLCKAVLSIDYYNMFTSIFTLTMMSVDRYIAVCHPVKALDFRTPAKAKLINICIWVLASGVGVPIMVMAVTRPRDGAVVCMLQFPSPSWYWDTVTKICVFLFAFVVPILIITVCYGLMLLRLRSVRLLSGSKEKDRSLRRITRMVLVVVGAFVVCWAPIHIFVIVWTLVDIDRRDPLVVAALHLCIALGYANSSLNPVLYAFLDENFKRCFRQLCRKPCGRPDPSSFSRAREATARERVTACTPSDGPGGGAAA
For assay [6], the target named is T2, Progesterone receptor (Homo sapiens, UniProt P06401).
T2 sequence (P06401 whole entry): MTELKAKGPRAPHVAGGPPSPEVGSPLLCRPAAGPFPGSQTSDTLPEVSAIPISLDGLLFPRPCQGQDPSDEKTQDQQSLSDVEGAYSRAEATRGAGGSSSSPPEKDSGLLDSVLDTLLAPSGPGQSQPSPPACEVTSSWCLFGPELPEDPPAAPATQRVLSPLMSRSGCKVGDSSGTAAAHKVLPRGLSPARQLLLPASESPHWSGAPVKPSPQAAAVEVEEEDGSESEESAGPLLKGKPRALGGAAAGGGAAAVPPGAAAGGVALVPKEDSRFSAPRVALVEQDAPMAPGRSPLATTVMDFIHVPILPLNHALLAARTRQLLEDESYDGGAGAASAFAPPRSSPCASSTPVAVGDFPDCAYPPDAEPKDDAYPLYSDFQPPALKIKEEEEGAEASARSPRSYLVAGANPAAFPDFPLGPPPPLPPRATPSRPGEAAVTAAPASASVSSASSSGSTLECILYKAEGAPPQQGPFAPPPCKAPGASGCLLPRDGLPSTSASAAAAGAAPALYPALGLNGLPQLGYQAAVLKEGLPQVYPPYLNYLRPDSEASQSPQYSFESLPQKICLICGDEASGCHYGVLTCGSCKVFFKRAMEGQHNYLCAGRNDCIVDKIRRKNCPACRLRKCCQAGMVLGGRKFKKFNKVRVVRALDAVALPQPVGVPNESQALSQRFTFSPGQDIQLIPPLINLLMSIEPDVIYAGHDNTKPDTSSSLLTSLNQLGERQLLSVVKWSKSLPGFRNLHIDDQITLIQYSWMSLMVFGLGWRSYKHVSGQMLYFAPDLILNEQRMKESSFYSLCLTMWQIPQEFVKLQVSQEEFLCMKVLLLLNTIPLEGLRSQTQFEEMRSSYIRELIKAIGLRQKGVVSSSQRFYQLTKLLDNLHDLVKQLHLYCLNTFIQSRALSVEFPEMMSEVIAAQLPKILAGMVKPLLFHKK
The class given is functional.

The target of assay [7] is Glutamate receptor ionotropic, NMDA 1 (Rattus norvegicus, UniProt P35439).

Structures are written as SMILES. A value given as a limit tells only on which side of the number the result lay.
Further: assay procedure not described here.

Sequence of Motilin receptor (O43193 whole entry): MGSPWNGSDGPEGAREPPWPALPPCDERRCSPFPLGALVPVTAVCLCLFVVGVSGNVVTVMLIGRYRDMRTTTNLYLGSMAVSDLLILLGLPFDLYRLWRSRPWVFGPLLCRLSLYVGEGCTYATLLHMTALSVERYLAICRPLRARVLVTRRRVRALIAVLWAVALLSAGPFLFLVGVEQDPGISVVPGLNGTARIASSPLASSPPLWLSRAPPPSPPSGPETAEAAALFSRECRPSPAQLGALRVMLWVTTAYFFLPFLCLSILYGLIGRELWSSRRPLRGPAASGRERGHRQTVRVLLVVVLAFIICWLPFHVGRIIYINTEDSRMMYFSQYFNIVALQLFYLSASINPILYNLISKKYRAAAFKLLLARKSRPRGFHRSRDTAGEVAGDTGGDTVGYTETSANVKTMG
Sequence of Cannabinoid receptor 1 (P21554 whole entry): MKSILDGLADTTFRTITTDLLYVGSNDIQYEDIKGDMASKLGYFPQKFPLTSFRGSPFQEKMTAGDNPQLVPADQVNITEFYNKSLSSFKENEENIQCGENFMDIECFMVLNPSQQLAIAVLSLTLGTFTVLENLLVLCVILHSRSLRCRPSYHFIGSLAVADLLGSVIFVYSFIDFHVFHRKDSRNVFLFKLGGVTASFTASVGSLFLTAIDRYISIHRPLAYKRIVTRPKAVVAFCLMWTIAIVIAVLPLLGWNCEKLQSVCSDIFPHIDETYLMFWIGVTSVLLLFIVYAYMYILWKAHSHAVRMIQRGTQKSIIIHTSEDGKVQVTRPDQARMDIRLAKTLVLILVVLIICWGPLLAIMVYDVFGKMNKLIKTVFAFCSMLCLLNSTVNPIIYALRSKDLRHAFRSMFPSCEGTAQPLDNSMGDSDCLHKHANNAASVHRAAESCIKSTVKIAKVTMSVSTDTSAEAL

On to `CCOc1nc2cccc(C(=O)O)c2n1Cc1ccc(-c2ccccc2-c2nnn[nH]2)cc1`, for which the half-maximal activity concentration (AC50) was more than 30 µM in assay [1]; more than 30 µM in assay [2]; more than 30 µM in assay [3]; 13 µM in assay [4]; more than 30 µM in assay [5]; more than 30 µM in assay [6].

`CCOc1cc([C@@H](CS(C)(=O)=O)N2C(=O)c3cccc(NC(C)=O)c3C2=O)ccc1OC`: the AC50 in assay [1], in assay [2], in assay [3], in assay [4], in assay [5] and in assay [6] was more than 30 µM throughout.

Take `CC(=O)Nc1ccc(CC(=O)O)cc1` [ACTARIT]: the half-maximal activity concentration (AC50) in assay [1], in assay [2], in assay [3], in assay [7], in assay [4] and in assay [5] was more than 30 µM throughout. Moreover, in assay [6], the AC50 is more than 30 µM.

With `CC(C(=O)O)c1ccc2oc(-c3ccc(Cl)cc3)nc2c1` (centres undefined) [BENOXAPROFEN], the AC50 in assay [1], in assay [2], in assay [3], in assay [7], in assay [4] and in assay [5] was more than 30 µM throughout. The compound also came in with a half-maximal activity concentration (AC50) in assay [6] of more than 30 µM.

Consider `CC1(C)S[C@@H]2[C@H](NC(=O)C(C(=O)O)c3ccccc3)C(=O)N2[C@H]1C(=O)O` (some centres undefined) [CARBENICILLIN], for which the AC50 in assay [1], in assay [2], in assay [3], in assay [7], in assay [4] and in assay [5] was more than 30 µM in each case. In assay [6], this compound came in with a half-maximal activity concentration (AC50) of more than 30 µM.

On to `CC=CC1=C(C(=O)O)N2C(=O)[C@@H](NC(=O)[C@H](N)c3ccc(O)cc3)[C@H]2SC1` [CEFPROZIL], for which the AC50 in assay [1], in assay [3], in assay [7], in assay [4], in assay [5] and in assay [6] was more than 30 µM in each case.

On to `CC(C)(O/N=C(\C(=O)N[C@@H]1C(=O)N2C(C(=O)[O-])=C(C[n+]3ccccc3)CS[C@H]12)c1csc(N)n1)C(=O)O` [CEFTAZIDIME], for which the AC50 in assay [1] is more than 300 µM; in assay [2], more than 300 µM; in assay [3], more than 300 µM; in assay [7], more than 30 µM; in assay [4], more than 300 µM; in assay [5], more than 300 µM.

Regarding `CCCNC(=O)NS(=O)(=O)c1ccc(Cl)cc1` [CHLORPROPAMIDE], the AC50 in assay [1] was more than 10 µM; in assay [2] it was more than 30 µM; in assay [3] it was more than 10 µM; in assay [7], more than 10 µM; in assay [4], more than 30 µM; in assay [5] it was more than 30 µM.

As to `Cc1cc(C2CCCCC2)n(O)c(=O)c1` [CICLOPIROX], the half-maximal activity concentration (AC50) in assay [4] and in assay [6] was more than 30 µM in each case.

For the compound `Clc1ccc(Cn2c(CN3CCCC3)nc3ccccc32)cc1` [CLEMIZOLE], the AC50 in assay [1], in assay [2], in assay [3], in assay [4] and in assay [5] was more than 30 µM in each case.

On to `CCC(=O)O[C@]1(C(=O)CCl)[C@@H](C)C[C@H]2[C@@H]3CCC4=CC(=O)C=C[C@]4(C)[C@@]3(F)[C@@H](O)C[C@@]21C` [CLOBETASOL PROPIONATE], for which the AC50 was 25 µM in assay [1]; more than 30 µM in assay [2]; more than 30 µM in assay [7]; more than 30 µM in assay [4]; more than 30 µM in assay [5].

Turning to `CC(C)Cc1ccc([C@H](C)C(=O)O)cc1` [DEXIBUPROFEN], the AC50 in assay [1], in assay [2], in assay [3], in assay [4], in assay [5] and in assay [6] was more than 30 µM in each case.

For `CNC[C@H](O)c1ccc(O)c(O)c1` [EPINEPHRINE], the concentration at half-maximal activity (AC50) in assay [1], in assay [2], in assay [4], in assay [5] and in assay [6] was more than 30 µM in each case.

In the case of `Cc1onc(-c2c(F)cccc2Cl)c1C(=O)N[C@@H]1C(=O)N2[C@@H]1SC(C)(C)[C@@H]2C(=O)O` [FLOXACILLIN], the half-maximal activity concentration (AC50) in assay [1], in assay [2], in assay [3], in assay [4], in assay [5] and in assay [6] was more than 30 µM in each case.

As to `CCCCCCCN(CC)CCCC(O)c1ccc(NS(C)(=O)=O)cc1` (centres undefined) [IBUTILIDE], the AC50 in assay [1], in assay [7], in assay [4], in assay [5] and in assay [6] was more than 30 µM in each case.

`CC[C@H](C)C(=O)O[C@H]1C[C@@H](C)C=C2C=C[C@H](C)[C@H](CC[C@@H]3C[C@@H](O)CC(=O)O3)[C@H]21` [LOVASTATIN]: the AC50 was more than 10 µM in assay [1]; more than 30 µM in assay [2]; more than 10 µM in assay [3]; more than 10 µM in assay [7]; more than 30 µM in assay [4]; more than 30 µM in assay [5].

For the compound `CC[C@@H](CO)NC(=O)[C@@H]1C=C2c3cccc4c3c(cn4C)C[C@H]2N(C)C1` [METHYSERGIDE], the half-maximal activity concentration (AC50) in assay [1] was more than 10 µM; in assay [2] it was more than 30 µM; in assay [7] it was more than 10 µM; in assay [4], more than 30 µM; in assay [5] it was more than 30 µM.

On to `CNC(=C[N+](=O)[O-])NCCSCc1csc(CN(C)C)n1` [NIZATIDINE], for which the AC50 in assay [1] is more than 10 µM; in assay [3], more than 10 µM; in assay [7] it was more than 10 µM; in assay [4], more than 30 µM; in assay [5] it was more than 30 µM; in assay [6], more than 10 µM.

As to `CN1Cc2c(N)cccc2C(c2ccccc2)C1` (centres undefined) [NOMIFENSINE], the AC50 in assay [1], in assay [2], in assay [7], in assay [4], in assay [5] and in assay [6] was more than 30 µM each time.

As to `CCCc1cc(=O)[nH]c(=S)[nH]1` [PROPYLTHIOURACIL], the AC50 in assay [1] is more than 10 µM; in assay [3] it was more than 10 µM; in assay [7], more than 10 µM; in assay [4] it was more than 30 µM; in assay [5], more than 30 µM; in assay [6], more than 10 µM.

As for `Cn1cc(C(=O)[C@@H]2CCc3nc[nH]c3C2)c2ccccc21` [RAMOSETRON], the AC50 in assay [1], in assay [2], in assay [7], in assay [4], in assay [5] and in assay [6] was more than 30 µM throughout.

For the compound `CN(CCOc1ccc(CC2SC(=O)NC2=O)cc1)c1ccccn1` (centres undefined) [ROSIGLITAZONE], the AC50 in assay [1], in assay [2], in assay [7], in assay [4], in assay [5] and in assay [6] was more than 30 µM each time.

As for `S=P(N1CC1)(N1CC1)N1CC1` [THIOTEPA], the AC50 in assay [1] was more than 30 µM; in assay [2], more than 30 µM; in assay [3] it was more than 10 µM; in assay [4], more than 30 µM; in assay [5] it was more than 30 µM; in assay [6], more than 30 µM.

`CC(C)[C@H](N)C(=O)OCCOCn1cnc2c(=O)[nH]c(N)nc21` [VALACYCLOVIR]: the concentration at half-maximal activity (AC50) in assay [1] was more than 10 µM; in assay [2], more than 30 µM; in assay [3], more than 10 µM; in assay [7], more than 10 µM; in assay [4] it was more than 30 µM; in assay [5], more than 30 µM.

For the compound `COc1cc(C(=O)NS(=O)(=O)c2ccccc2C)ccc1Cc1cn(C)c2ccc(NC(=O)OC3CCCC3)cc12` [ZAFIRLUKAST], the AC50 in assay [1] was more than 10 µM; in assay [2], 30 µM; in assay [7], more than 10 µM; in assay [4], 14 µM; in assay [5] it was more than 30 µM; in assay [6], 11.2 µM.

One may read the AC50 as the midpoint of the concentration-response curve, whichever way the signal moves.

The record behind these values is ChEMBL document CHEMBL5291721, “A preclinical secondary pharmacology resource illuminates target-adverse drug reaction associations of marketed drugs” (Nat Commun, 2023).
